Consider 89 molecules from a melting point compilation (Tetko et al.; mined from patent text by program, amines drawn as free bases though some values may be those of a salt).

The term melting point denotes the temperature of the solid-liquid transition. The molecule `CNC(=O)N(O)C(C)c1ccc(OCc2ccccc2)cc1` (centres undefined) came in with a melting point of 125 to 128 °C.
The result for `COC1(c2cc(F)cc(Sc3cnc4c(c3)OCC(=O)N4C)c2)CCOCC1` reads 127 to 128 °C; that for `c1coc(CN2CC3(COc4cc5c(cc43)OCO5)c3ccccc32)c1` (centres undefined), 110 to 112 °C.
In the case of `COc1cc(Nc2nccc(-c3cncs3)n2)cc(OC)c1OC`, the melting point is 171 °C.
The result for `CCc1c(OCc2ccc(Cl)cc2)cnn(C(C)(C)C)c1=O` reads 86 to 88 °C; that for `CCCCCC(O)CCN1C(=O)NC(=O)C1CCCCCCC(=O)O` (centres undefined), 63 to 65 °C; that for `OC(CNC1CCC1)c1cc(C(F)(F)F)nc2c(C(F)(F)F)cccc12` (centres undefined), 145 °C.
The result for `CCCCCCCCCCCCCCc1c[nH]c(C(=O)O)c1` reads 148 to 150 °C; that for `Nc1c(-c2ccc(Cl)cc2)nc2ccc(Cl)cc2c1C(=O)O`, 240 to 241 °C; that for `CC(=O)Nc1c(Cl)cc(CC(=O)O)cc1Cl`, 209 to 211 °C.
Take `CC(=O)Nc1c(C(=O)c2cc(CO)ccn2)[nH]c2cc(Cl)ccc12`: the melting point lay in the range of 216 to 218 °C.
The result for `COc1cccc([C@H]2O[C@H](CC(=O)Nc3c(C)c(C)c4oc(C(=O)O)cc4c3C)C(=O)N(CC(C)(C)CO)c3ccc(Cl)cc32)c1OC` reads 246 to 248 °C; that for `COc1ccc(C2(O)C(c3ccccc3Cl)SC3=NCCCCN32)cc1OC` (centres undefined), 98 to 100 °C.
`CC(=NO)c1ccc2c(c1)C(c1ccccc1F)=NC(C)C(=O)N2C` (centres undefined) yielded a melting point of 101 to 103 °C.
For `Cc1nc2n(c(=O)c1CCN1CCC(C(=O)c3ccc(F)cc3)CC1)CCS2`, the melting point amounted to 166 °C.
As for `CC(C)(C)c1cc(CC2=NC(=S)SC2)cc(C(C)(C)C)c1O`, the melting point lay in the range of 138 to 140 °C.
The result for `COc1ccc(C=CC(=O)c2ccccc2Br)c(OC)c1` reads 91.3 to 91.8 °C; that for `COC(=O)c1ccc(C(=O)NNC(=O)C=Cc2ccccc2)cc1`, 207 °C.
In turn, `CN1C(=O)N2[C@H](c3cccc(O)c3)c3[nH]c4ccc(Cl)cc4c3C[C@@]2(C)C1=O` (racemic) displayed a melting point of 248 to 250 °C.
For `N#Cc1ccc(-n2c(=O)cc(C(F)(F)F)[nH]c2=O)cc1[N+](=O)[O-]`, the melting point stood at 135 °C.
The result for `O=S(=O)(c1ccc(Cl)cc1)C(c1cc(F)ccc1F)c1cc(Cl)ncc1Cl` (centres undefined) reads 147 to 148 °C.
The result for `CC1SC(=O)NN=C1c1ccc2c(c1)C(=Cc1ccccn1)C(=O)N2` (centres undefined) reads 296 °C; that for `Cc1ccc(S(=O)(=O)Oc2ccc(NC(=O)NCCCl)cc2)cc1`, 149 to 150 °C.
The result for `Nc1csc2ccc([N+](=O)[O-])cc12` reads 155 to 158 °C; that for `CN(C)S(=O)(=O)NC1CCC(CCN2CCN(c3nccc4c3OCC4)CC2)CC1` (centres undefined), 128 °C; that for `CC(C)(C)OC(=O)N1CC(O)C(N=[N+]=[N-])C1` (centres undefined), 34 to 36 °C.
`O=C1CC2(c3ccccc3)CCCC=C2C(=O)N1` (centres undefined) had a melting point of 241 to 243 °C.
The result for `CC(C)CSc1cc(C(=O)O)cc(N)c1Oc1ccccc1` reads 148 to 150 °C; that for `COC(=O)C1Cc2c([nH]c3ccccc23)C(C)N1C(=S)SC` (centres undefined), 229 to 230 °C; that for `Cc1ccc2c(NN)ccnc2c1NC(=O)c1c(Cl)cccc1Cl`, 202 to 204 °C.
The result for `CCOc1ccc(C(=O)C2CC2)cc1` reads 67 to 70 °C; that for `CC(C)OC1OC(=O)CC(C)(C)C1OS(C)(=O)=O` (centres undefined), 75 °C.
The result for `N#Cc1ncccc1CCc1ccc(F)cc1` reads 48 to 49 °C; that for `COC1(c2cc(O)cc(F)c2)CCOC1` (centres undefined), 136 to 137 °C.
In turn, `CCCc1c(OCCCOc2ccc(Sc3ccccc3CC(=O)O)cc2)ccc(C(C)=O)c1O` displayed a melting point of 123 to 124 °C.
The molecule `Cc1cc(=O)n(O)c(C)c1Cc1ccccc1` came in with a melting point of 165 °C.
The result for `Nc1cccc(S(=O)(=O)NC(=O)c2ccccc2)c1` reads 160 to 162 °C; that for `Cc1c(CN2CCC(c3c(Cl)cccc3Cl)CC2)[nH]c2ccccc12`, 139 to 141 °C.
The result for `C#Cc1c(C#N)nn(-c2c(Cl)cc(C(F)(F)F)cc2Cl)c1N` reads 215 to 216 °C; that for `CC(C)(C)c1ccc(C(O)(c2ccccc2)C2CCN(CCCC(O)c3ccccc3)CC2)cc1` (centres undefined), 161 to 163 °C; that for `COc1ccc(OC)c2c1CCC(O)(CCO)C2` (centres undefined), 121 to 122 °C.
The result for `Cc1cc2oc(=O)c(NC(N)=O)c(-c3ccccc3C)c2cc1Cl` reads 240 to 242 °C; that for `CC(C)(C)OC(=O)NC1CCN(C(=O)[C@@]23C[C@@H](c4ccccc42)c2ccc(Cl)cc23)CC1`, 154 to 156 °C.
The molecule `CCC1CCC(c2ccc(-c3cc(F)c(C(F)(F)Oc4cc(F)c(C(F)(F)F)c(F)c4)c(F)c3)c(F)c2)CC1` (centres undefined) returned a melting point of 77 °C.
The molecule `CCCC[C@H](NC(=O)[C@H](CC(C)C)NC(=O)c1coc2ccccc12)C(=O)CSCc1ccco1` came in with a melting point of 113 to 116 °C.
`CN(C)CCCOc1ccc(C[C@H](NC(=O)[C@@H]2CCCN2S(=O)(=O)c2cn(C)cn2)C(=O)O)cc1` displayed a melting point of over 200 °C.
The result for `CC1(C)c2cc(O)ccc2OC1CO` (centres undefined) reads 79 to 80 °C.
Turning to `Cc1nn(-c2cccc(C(F)(F)F)c2)c(C)c1CC(=O)O`, the melting point fell in the range of 83 to 85 °C.
Regarding `COc1cc2c3c(c1)c(CCN1CCN(c4cc(C)ccn4)CC1)c(C)n3CCC2`, the melting point came to 104 °C.
The result for `CN(CCN(C)c1ccc(OS(=O)(=O)C(F)(F)F)nc1)c1ccc(OS(=O)(=O)C(F)(F)F)nc1` reads 146 to 148 °C; that for `COC(=O)[C@@H]1O[C@H]1c1ccc(OC)cc1`, 86 to 87 °C; that for `CC(C(O)c1ccc2c(c1)CCCS2)N1CCN(C(=O)C=Cc2ccccc2Cl)CC1` (centres undefined), 206 to 209 °C.
The result for `O=C(Nc1ccc(C(=O)N2CCCc3ccccc32)cc1)c1ccccc1` reads 202 to 204 °C; that for `CC(C)CCN1C(=O)C2(COc3cc(O)ccc32)c2ccccc21` (centres undefined), 101 to 103 °C; that for `O=C(c1ccnc(F)c1)N1CCC[C@H](c2nc(-c3ccc(F)cc3)no2)C1`, 93 to 95 °C.
In turn, `O=[S@@]1CCCC[C@@H]1c1cccnc1` had a melting point of 124 to 126 °C.
The result for `CC=CC(=O)C1C(C)C(=O)CCC1(C)C` (centres undefined) reads 76 to 77 °C; that for `O=C(c1ccccc1)c1cc([N+](=O)[O-])ccc1OCCO`, 124 to 126 °C.
`COC(=O)NC(=O)c1c(Br)ccc2c(C(F)(F)F)c(OC)ccc12` registered a melting point of 180 to 182 °C.
The result for `O=C1C2=C(CCCC2)C(=O)N1c1cc(OCC2=CCCSC2)c(Cl)cc1F` reads 134 to 137 °C; that for `CCCOc1nc(N)nc2c1ncn2C1C=CC(CO)C1` (centres undefined), 97 to 99 °C; that for `CC(C)(C)C(=O)CC(=O)c1ccccc1`, 43 to 45 °C.
`CCOC(=O)C1CCC(=C(C#N)C(=O)c2ccc(Cl)cc2)N1` (centres undefined) showed a melting point of 108 to 110 °C.
The result for `COc1cc(Nc2ncc3c(n2)C(C)(c2ccccc2)CCC3)ccc1-n1cnc(C)c1` (centres undefined) reads 207 to 209 °C.
The result for `O=C(c1ccccc1OCCCCl)c1cccc2[nH]ccc12` reads 94 °C; that for `COc1ccc(Nc2nc(NC3CCCCCC3)nc(Oc3ccccc3C#CC(C)(C)O)n2)cc1Cl`, 150 to 158 °C; that for `COc1ccc(CNc2cc(Cn3c(C(=O)c4cc(C)cc(C)c4)c(C(C)C)c(=O)[nH]c3=O)cc(F)n2)cc1`, 120 to 122 °C.
The result for `Brc1cc(Br)cc(Cc2cccnc2)c1` reads 70 to 72 °C; that for `Cn1cc(-c2ccc(C(=O)O)cc2)cn1`, 274 to 275 °C; that for `O=C(CCCOc1ccc2nc3[nH]c(=O)[nH]c3cc2c1)N1CCN(c2ccccc2)CC1`, 277 to 279 °C.
On to `COC(=O)C1CCCN(C(=O)OCc2ccccc2)N1C(=O)C(Br)CBr` (centres undefined), for which the melting point fell in the range of 132 to 134 °C.
The result for `CCCCn1c(=S)sc2c(=N)n(NC(=O)c3ccco3)cnc21` reads 210 °C; that for `COc1cc2c(cc1Nc1ncc(Cl)c(Nc3c(OC)ccc4c3CN(S(C)(=O)=O)CC(=O)N4)n1)CCN(CC(=O)N(C)C)CC2`, 118 to 121 °C; that for `Nc1c2c(nc3ccc(Cl)cc13)CCCC2=O`, over 260 °C.
The molecule `O=C(NC(=O)N(SC(Cl)(Cl)Cl)c1ccc(C(F)(F)F)cc1)c1c(F)cccc1F` yielded a melting point of 129 to 130 °C.
The result for `COCc1nsc2ccc(-n3c(=O)cc(C(F)(F)F)n(C)c3=O)cc12` reads 161 to 163 °C; that for `CCOC(=O)c1cnc2n(c1=O)CCC(C)C2=NNc1ccccc1` (centres undefined), 108 to 110 °C; that for `COc1ccnc(OC)c1CON=C(C)c1cc(C)cc(C)n1`, 114 to 116 °C.
Molecule `N#Cc1ccc(-c2cc3c(n2-c2ccc(O)c(C(=O)O)c2)CCCC3)cc1` gave a melting point of 242 to 244 °C.
The result for `CC(C)(C)c1cc(-n2nc3ccc(S(=O)(=O)c4ccc5nn(-c6cc(C(C)(C)C)cc(C(C)(C)C)c6O)nc5c4)cc3n2)c(O)c(C(C)(C)C)c1` reads over 300 °C; that for `O=C1CCNc2cc(Cl)c(F)cc21`, 192 to 194 °C; that for `COC1CCC(O)C(CNC(C)=O)O1` (centres undefined), 117 to 118 °C.
The result for `O=C(O)CCCCCCCC(=O)Nc1cc(Cl)ccc1O` reads 117 to 118 °C.
The result for `COc1cc(OC)c(C=CC(=O)c2ccc(S(N)(=O)=O)cc2)cc1C#Cc1ccccc1N` reads 167 to 169 °C; that for `Cc1ccccc1C(=O)OCC1OC(N2CN(C)C(=O)NC2=O)CC1OC(=O)c1ccccc1C` (centres undefined), 184 to 185 °C.
Take `COC(=O)c1ccccc1N=CNc1nnn[nH]1`: the melting point was in the range of 199 to 200 °C.
The result for `CCCCc1ccc(-c2ccccc2)c(C(=O)O)c1` reads 74 to 76 °C; that for `N#CC(C#N)(OC(=O)c1ccc(Cl)c(Cl)c1)c1ccc(Cl)c(Cl)c1`, 110 °C.
The molecule `C#CCn1cc(Br)cnc1=O` came in with a melting point of 139 to 141 °C.
